According to ChEMBL document CHEMBL1201862, “PubChem BioAssay data set” (2004):
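Assay format: 96-well plates, 48-hour exposure. GI50 = concentration required for 50% inhibition of growth.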 Calls of active or inactive are those of the source. Cut-off read from the data, not from the text of the source: active = GI50 up to about 1.1 µM and inactive = higher.

Columns and labels:
Experiment in all cases: NCI tumour cell line growth inhibition, 48 h
HCT-15 = system: HCT-15
UO-31 = system: UO-31
ACHN = system: ACHN
RPMI-8226 = system: RPMI-8226
DLD-1 = system: DLD-1
UACC-257 = system: UACC-257
A498 = system: A498
XF498 = system: XF498
HT-29 = system: HT-29
HOP-62 = system: HOP-62
SF-268 = system: SF-268
KM-20L2 = system: KM-20L2
OVCAR-4 = system: OVCAR-4
SN12C = system: SN12C
DMS-273 = system: DMS-273
HCT-116 = system: HCT-116
SNB-78 = system: SNB-78
HOP-18 = system: HOP-18
HL-60 = system: HL-60
K562 = system: K562
SF-295 = system: SF-295
UACC-62 = system: UACC-62
NCI-H522 = system: NCI-H522
LXFL 529 = system: LXFL 529
HOP-92 = system: HOP-92
786-0 = system: 786-0
HCC 2998 = system: HCC 2998
A549 = system: A549
NCI-H226 = system: NCI-H226
SNB-19 = system: SNB-19
SK-MEL-5 = system: SK-MEL-5
SNB-75 = system: SNB-75
SK-MEL-28 = system: SK-MEL-28
OVCAR-8 = system: OVCAR-8
Malme-3M = system: Malme-3M
IGROV-1 = system: IGROV-1
COLO 205 = system: COLO 205
MOLT-4 = system: MOLT-4
CCRF-CEM = system: CCRF-CEM
M19-MEL = system: M19-MEL
SK-OV-3 = system: SK-OV-3
NCI-H23 = system: NCI-H23
U-251 = system: U-251
SR = system: SR
SW-620 = system: SW-620
RXF 393 = system: RXF 393
M14 = system: M14
EKVX = system: EKVX
SF-539 = system: SF-539
DMS-114 = system: DMS-114
KM12 = system: KM12
T47D = system: T47D
MDA-MB-435 = system: MDA-MB-435
MDA-MB-231 = system: MDA-MB-231
DU-145 = system: DU-145
OVCAR-3 = system: OVCAR-3
LOX IMVI = system: LOX IMVI
NCI/ADR-RES = system: NCI/ADR-RES
Hs-578T = system: Hs-578T
MDA-N = system: MDA-N
MCF7 = system: MCF7
OVCAR-5 = system: OVCAR-5
TK-10 = system: TK-10
SK-MEL-2 = system: SK-MEL-2
BT-549 = system: BT-549
NCI-H460 = system: NCI-H460
PC-3 = system: PC-3

Question: What does the source list for CCOc1ccc(/C=C(\Cl)c2ccc(OC)c(OC)c2)cc1?
Answer: GI50 (HCT-15): 20.9 µM; GI50 (UO-31): 28.7 µM (inactive); GI50 (ACHN): 36.4 µM (inactive); GI50 (RPMI-8226): 20 µM (inactive); GI50 (DLD-1): 22.5 µM (inactive); GI50 (UACC-257): 21 µM (inactive); GI50 (A498): 27.6 µM (inactive); GI50 (XF498): > 100 µM (inactive); GI50 (HT-29): 16.6 µM (inactive); GI50 (HOP-62): 98.6 µM (inactive); GI50 (SF-268): 87.3 µM (inactive); GI50 (KM-20L2): 16.7 µM (inactive); GI50 (OVCAR-4): 33.3 µM (inactive); GI50 (SN12C): 60.3 µM (inactive); GI50 (DMS-273): 22 µM (inactive); GI50 (HCT-116): 32.6 µM (inactive); GI50 (SNB-78): 89.5 µM (inactive); GI50 (HOP-18): 57.9 µM (inactive); GI50 (HL-60): 21.8 µM (inactive); GI50 (K562): 30.8 µM (inactive); GI50 (SF-295): 80.9 µM (inactive); GI50 (UACC-62): 20.5 µM (inactive); GI50 (NCI-H522): 19.2 µM (inactive); GI50 (LXFL 529): 35.9 µM (inactive); GI50 (HOP-92): 55.3 µM (inactive); GI50 (786-0): > 100 µM (inactive); GI50 (HCC 2998): 41.6 µM (inactive); GI50 (A549): 35.2 µM (inactive); GI50 (NCI-H226): 33.1 µM (inactive); GI50 (SNB-19): > 100 µM (inactive); GI50 (SK-MEL-5): 26.5 µM (inactive); GI50 (SNB-75): > 100 µM (inactive); GI50 (SK-MEL-28): 38.5 µM (inactive); GI50 (OVCAR-8): 63.8 µM (inactive); GI50 (Malme-3M): 58.9 µM (inactive); GI50 (IGROV-1): 84.9 µM (inactive); GI50 (COLO 205): 48.2 µM (inactive); GI50 (MOLT-4): 26.2 µM (inactive); GI50 (CCRF-CEM): 37.1 µM (inactive); GI50 (M19-MEL): 37.4 µM (inactive); GI50 (SK-OV-3): 77.1 µM (inactive); GI50 (NCI-H23): 19.3 µM (inactive); GI50 (U-251): > 100 µM (inactive); GI50 (SR): 12.2 µM (inactive); GI50 (SW-620): 50.6 µM (inactive); GI50 (RXF 393): 12.4 µM (inactive); GI50 (M14): 25.3 µM (inactive); GI50 (EKVX): 80.4 µM (inactive); GI50 (SF-539): > 100 µM (inactive); GI50 (DMS-114): 26.6 µM (inactive)

Question: COC1C(O)C(C)OC(OC2C(Oc3cccc4c(O)c5c(=O)oc6ccc(C)c7c(=O)oc(c34)c5c67)OC(C)C(O)C2O)C1O (stereo not given) was tested. Which GI50 (HCT-15) did it give?
Answer: Its GI50 is 3.03 µM.

Question: What about the GI50 (UO-31) of the same molecule?
Answer: The GI50 was 4.59 µM (inactive).

Question: And the GI50 (ACHN)?
Answer: The GI50 was 4.98 µM (inactive).

Question: What about the GI50 (RPMI-8226) of the same molecule?
Answer: The GI50 was 1.39 µM (inactive).

Question: And the GI50 (KM12)?
Answer: The GI50 was 1.64 µM (inactive).

Question: And the GI50 (DLD-1)?
Answer: Its GI50 is 1.26 µM (inactive).

Question: And the GI50 (UACC-257)?
Answer: The GI50 was 2.31 µM (inactive).

Question: What about the GI50 (A498) of the same molecule?
Answer: The GI50 was 2.04 µM (inactive).

Question: And the GI50 (XF498)?
Answer: The GI50 was 0.824 µM (active).

Question: What about the GI50 (T47D) of the same molecule?
Answer: Its GI50 is 0.968 µM (active).

Question: And the GI50 (HT-29)?
Answer: Its GI50 is 2.63 µM (inactive).

Question: What about the GI50 (HOP-62) of the same molecule?
Answer: The GI50 was 1.77 µM (inactive).

Question: And the GI50 (SF-268)?
Answer: Its GI50 is 0.904 µM (active).

Question: And the GI50 (KM-20L2)?
Answer: The GI50 was 2.52 µM (inactive).

Question: What about the GI50 (OVCAR-4) of the same molecule?
Answer: The GI50 was 6.24 µM (inactive).

Question: What about the GI50 (MDA-MB-435) of the same molecule?
Answer: Its GI50 is 2.07 µM (inactive).

Question: And the GI50 (MDA-MB-231)?
Answer: The GI50 was 1.67 µM (inactive).

Question: And the GI50 (SN12C)?
Answer: Its GI50 is 2.52 µM (inactive).

Question: What about the GI50 (DU-145) of the same molecule?
Answer: The GI50 was 6.65 µM (inactive).

Question: What about the GI50 (DMS-273) of the same molecule?
Answer: Its GI50 is 2.1 µM (inactive).

Question: What about the GI50 (HCT-116) of the same molecule?
Answer: The GI50 was 0.731 µM (active).

Question: What about the GI50 (SNB-78) of the same molecule?
Answer: Its GI50 is 2 µM (inactive).

Question: And the GI50 (HOP-18)?
Answer: The GI50 was 2.45 µM (inactive).

Question: What about the GI50 (OVCAR-3) of the same molecule?
Answer: Its GI50 is 2.34 µM (inactive).

Question: What about the GI50 (HL-60) of the same molecule?
Answer: The GI50 was 2.38 µM (inactive).

Question: What about the GI50 (K562) of the same molecule?
Answer: Its GI50 is 0.804 µM (active).

Question: And the GI50 (SF-295)?
Answer: Its GI50 is 1.29 µM (inactive).

Question: What about the GI50 (LOX IMVI) of the same molecule?
Answer: The GI50 was 1.14 µM (inactive).

Question: And the GI50 (UACC-62)?
Answer: Its GI50 is 1.17 µM (inactive).

Question: What about the GI50 (NCI-H522) of the same molecule?
Answer: Its GI50 is 0.871 µM (active).

Question: And the GI50 (HOP-92)?
Answer: Its GI50 is 0.233 µM (active).

Question: What about the GI50 (786-0) of the same molecule?
Answer: Its GI50 is 0.91 µM (active).

Question: What about the GI50 (HCC 2998) of the same molecule?
Answer: The GI50 was 2.16 µM (inactive).

Question: And the GI50 (NCI/ADR-RES)?
Answer: The GI50 was 11.8 µM (inactive).

Question: What about the GI50 (A549) of the same molecule?
Answer: The GI50 was 6.14 µM (inactive).

Question: What about the GI50 (Hs-578T) of the same molecule?
Answer: The GI50 was 2.38 µM (inactive).

Question: What about the GI50 (MDA-N) of the same molecule?
Answer: The GI50 was 2.01 µM (inactive).

Question: And the GI50 (MCF7)?
Answer: Its GI50 is 0.757 µM (active).

Question: And the GI50 (NCI-H226)?
Answer: Its GI50 is 1.35 µM (inactive).

Question: And the GI50 (SK-MEL-5)?
Answer: The GI50 was 1.59 µM (inactive).

Question: And the GI50 (SNB-75)?
Answer: The GI50 was 2.49 µM (inactive).

Question: And the GI50 (SK-MEL-28)?
Answer: The GI50 was 1.6 µM (inactive).

Question: And the GI50 (OVCAR-8)?
Answer: The GI50 was 1.15 µM (inactive).

Question: What about the GI50 (Malme-3M) of the same molecule?
Answer: Its GI50 is 1.35 µM (inactive).

Question: And the GI50 (IGROV-1)?
Answer: Its GI50 is 1.87 µM (inactive).

Question: What about the GI50 (COLO 205) of the same molecule?
Answer: The GI50 was 3.41 µM (inactive).

Question: And the GI50 (MOLT-4)?
Answer: The GI50 was 0.488 µM (active).

Question: And the GI50 (OVCAR-5)?
Answer: Its GI50 is 4.56 µM (inactive).

Question: What about the GI50 (CCRF-CEM) of the same molecule?
Answer: Its GI50 is 0.836 µM (active).

Question: What about the GI50 (M19-MEL) of the same molecule?
Answer: Its GI50 is 1.04 µM (active).

Question: And the GI50 (TK-10)?
Answer: The GI50 was 3.1 µM (inactive).

Question: What about the GI50 (SK-MEL-2) of the same molecule?
Answer: The GI50 was 1.03 µM (active).

Question: What about the GI50 (SK-OV-3) of the same molecule?
Answer: Its GI50 is 4.37 µM (inactive).

Question: And the GI50 (NCI-H23)?
Answer: The GI50 was 1.28 µM (inactive).

Question: And the GI50 (BT-549)?
Answer: The GI50 was 1.9 µM (inactive).

Question: What about the GI50 (U-251) of the same molecule?
Answer: Its GI50 is 0.959 µM (active).

Question: And the GI50 (SR)?
Answer: The GI50 was 0.373 µM (active).

Question: And the GI50 (SW-620)?
Answer: Its GI50 is 0.843 µM (active).

Question: And the GI50 (RXF 393)?
Answer: The GI50 was 1.34 µM (inactive).

Question: What about the GI50 (NCI-H460) of the same molecule?
Answer: Its GI50 is 2.26 µM (inactive).

Question: What about the GI50 (M14) of the same molecule?
Answer: The GI50 was 4.13 µM (inactive).

Question: What about the GI50 (EKVX) of the same molecule?
Answer: The GI50 was 1.34 µM (inactive).

Question: What about the GI50 (SF-539) of the same molecule?
Answer: Its GI50 is 1.51 µM (inactive).

Question: What about the GI50 (PC-3) of the same molecule?
Answer: The GI50 was 4.04 µM (inactive).

Question: What about the GI50 (DMS-114) of the same molecule?
Answer: The GI50 was 0.918 µM (active).
